Experiments:
[1] = Systemic tissue distribution of 3H-M4N 3 hours after single i.p. or i.v. injection; type: in vivo, mice
Method: M4N Tissue Distribution Studies Using ^3H-M4N. […] The insoluble pellet was then further extracted with EtOH.
At 3 hours post-injection, the organs and blood were harvested and weighed, and the M4N was extracted.

[2] = Tissue distribution after short-term oral feeding of M4N (HPLC); type: in vivo, mice
Method: Tissue Distribution and Toxicity Analysis Following Short-Term and Long-Term Oral Feeding. For short-term feeding experiments, 30 mg of M4N dissolved in 300 μL castor oil was orally administered to each of 6 mice. At 2 h, 4 h, and 8 h post-administration time points, 2 mice were sacrificed, the organs and blood were collected, and the M4N extracted and quantitated as described below. In long-term feeding experiments, mice were fed food balls consisting of M4N dissolved in corn oil and Basal Mix (Harlan Teklad; Madison, Wis.; Cat. # TD 02273) for 14 weeks. Food balls weighed 9 g and contained 242 mg M4N each. Two mice, one male and one female, were reserved for long-term drug retention studies; and fourteen mice, both male and female, were used for long-term drug toxicity studies. At the end of feeding, mice were sacrificed, the organs and blood were collected, and the M4N extracted and quantitated as described below.
M4N Extraction and HPLC Analysis Following Oral Feeding. Organs and blood were harvested from M4N-fed mice, then frozen overnight at −80° C. Prior to freezing, gastro-intestinal organs (stomach, small intestine, colon) were cut open longitudinally and washed thoroughly with PBS to remove any contents. The following day, organs were cut into small pieces on dry ice with a razor blade, dried in a Speed-vac, then crushed into a rough powder using a mortar and pestle. Samples were extracted overnight in 100% ethanol with shaking. Samples were centrifuged and the supernatant collected. Pellets were extracted two more times in 100% ethanol overnight with shaking. The pooled ethanol extracts were evaporated on bench top for several days, then re-extracted with ethyl acetate, and dried completely in a Speed-vac. The dried samples were then analyzed quantitatively by HPLC and M4N was identified by mass spectroscopy using pure M4N as a standard.
In samples from short-term fed mice, dialysis was performed to further purify M4N from the tissue extracts. Dried ethanol extracts were redissolved in 1.5 mL 100% EtOH and centrifuged for 5 min. The supernatant was collected and the pellet was resuspended in 0.4 mL ethanol and centrifuged again. The supernatant was pooled with the previous supernatant, then dialyzed overnight against 150 mL 100% EtOH. The dialysates were dried on bench top and in a speed-vac, then analyzed by HPLC.
HPLC Quantitation of M4N. Samples from a single mouse at each time point were sent to KP Pharmaceuticals (Bloomington, Ind.) for HPLC analysis. HPLC conditions were described as follows: 35%:0.1% TFA in H2O, 65%=“CAN.” The M4N standard was prepared by diluting 10.01 mg M4N in 100 mL of CAN, then sonicating for 5 min. (2002 ng/injection). The samples were prepared by adding 400 μL EtOH and sonicating for 2 min. or until complete dissolution was achieved. The injection volume for the samples was 100 μL.
The convenience and ease of oral administration, however, especially in the case of long-term post-surgical adjuvant treatment, would considerably facilitate drug administration to patients and would improve patient quality of life. Thus, in addition to i.p. and i.v. administration, the ability to systemically distribute M4N by oral administration was also investigated. In both short-term (<8 hours) feeding experiments and long-term (14 weeks) feeding experiments, M4N levels in various tissues and their in vivo toxicity was assessed. In short-term experiments, mice were fed 30 mg of M4N dissolved in castor oil (100 mg M4N/mL castor oil), and at 2, 4, and 8 hours post-feeding, the quantity of M4N present in various tissues was determined by HPLC.

[3] = test system: HT-29 colorectal carcinoma cells; test: Xenograft assay of human tumors in athymic nude mice, HT-29; type: in vivo
Excerpt: Xenograft Assay of Human Tumors.
Control mice received vehicle only.

[4] = test system: refractory head and neck carcinomas; type: in vivo, human
Excerpt: Eight male subjects and one […] participated. Mean weight was 139 lbs. (range 102 to 219 lbs.).

[5] = mouse, in vivo
Method: M4N Tissue Distribution Studies Using ^3H-M4N. Harlan ICR mice or C3 cell-induced tumor-bearing C57bl/6 mice were injected via tail vein or intraperitoneally with 100 μL of Cremaphor-ethanol based solvent containing 100 μCi of tritiated M4N and 60 mM of cold M4N. At the specified time post-injection, the mice were sacrificed, the organs and blood were collected, weighed, then dissolved overnight in 4 M guanidine isothiocyanate (GITC). The insoluble pellet was then further extracted with EtOH. Tritium content of both the GITC extract and the EtOH extract was measured on a Packard scintillation counter and the quantity of M4N in each organ was calculated based on the specific activity of the inoculum.
To determine the distribution of M4N in tissues over time following a single application, and also to assess the ability to deliver M4N to a distant tumor, six C3 cell-induced tumor bearing mice (A-F) were treated i.p. with ^3H-M4N as described above. At 4 hours, 6 hours, 18 hours, and 6 days post-injection, the quantities of ^3H-M4N in various tissues and the tumors were measured.

[6] = test system: human tumor xenografts (MCF-7, Hep3B, HT-29, LNCaP); conditions: all four tumor types, of 39 M4N-treated tumors, 21 days
Method: Xenograft Assay of Human Tumors. Athymic nude mice were implanted subcutaneously in their flanks with 2.5×10^6 Hep3B cells, 2×10^6 LNCaP cells, 1×10^7 HT-29 cells, or 2×10^6 MCF-7 cells.
M4N was dissolved in 6% Cremaphor EL, 6% ethanol, 88% saline as described in Loganzo et al. (2003). Mice received a single daily 100 μL i.p. injection containing 2 mg of M4N for 3 weeks. The control mice received an equal volume of the vehicle. Tumors were measured in two perpendicular dimensions (L and W) once every seven days, and the tumor volumes were calculated according to the following formula: V=(L×W/2)^3×π/6. The results from the individual mice were plotted as average tumor volume versus time. Statistical significance of the mean differences in tumor volume was assessed by Student's t-test.
Athymic nude mice were implanted s.c. in each flank with MCF-7 breast adenocarcinoma cells, Hep3B hepatocellular carcinoma cells, HT-29 colorectal carcinoma cells, and LNCaP prostate carcinoma cells. Most mice developed tumors in both flanks, although some developed a single tumor. When tumors attained a mean diameter of 7-8 mm, mice received for three weeks a single daily i.p. injection containing 2 mg of M4N dissolved in 100 uL Cremaphor-ethanol based solvent. Control mice received vehicle only. Tumors were measured in two perpendicular dimensions (L and W) once every seven days, and tumor volumes were calculated according to the formula: V=(L×W/2)^3×π/6.

[7] = HT-29, of 11 M4N-treated tumors, 21 days i.p. treatment

COc1ccc(C[C@@H](C)[C@@H](C)Cc2ccc(OC)c(OC)c2)cc1OC [M4N, meso-1,4-bis(3,4-dimethoxyphenyl)-2,3-dimethylbutane]
M4N detected in tissue ([1]; heart or blood, 3 hours post-injection): Little or no M4N | M4N present in tissue ([1]; liver and fat, 3 hours post-injection): Significant quantities | Toxicity of systemic i.p. and i.v. injection ([1]; mice, single injection): no apparent toxicity | Quantity of M4N in each tissue ([2]; 2 hours post-feeding, 30 mg oral): < 2 ng per gram tissue | M4N levels ([2]; 8 hours post-feeding): decreased in nearly all organs | M4N (ng)/organ dry weight (g) ([2]; Bladder, 2 hours after oral 30 mg M4N in castor oil): 2.34 ng/g | M4N (ng)/organ dry weight (g) ([2]; Bladder, 4 hours after oral 30 mg M4N in castor oil): 1.69 ng/g | M4N (ng)/organ dry weight (g) ([2]; Bladder, 8 hours after oral 30 mg M4N in castor oil): 0 ng/g | M4N (ng)/organ dry weight (g) ([2]; Blood, 2 hours after oral 30 mg M4N in castor oil): 0.5 ng/g | M4N (ng)/organ dry weight (g) ([2]; Blood, 4 hours after oral 30 mg M4N in castor oil): 2.08 ng/g | M4N (ng)/organ dry weight (g) ([2]; Blood, 8 hours after oral 30 mg M4N in castor oil): 0 ng/g | M4N (ng)/organ dry weight (g) ([2]; Caecum, 2 hours after oral 30 mg M4N in castor oil): 1.11 ng/g | M4N (ng)/organ dry weight (g) ([2]; Caecum, 4 hours after oral 30 mg M4N in castor oil): 4.38 ng/g | M4N (ng)/organ dry weight (g) ([2]; Caecum, 8 hours after oral 30 mg M4N in castor oil): 6.55 ng/g | M4N (ng)/organ dry weight (g) ([2]; Fat, 2 hours after oral 30 mg M4N in castor oil): 0.11 ng/g | M4N (ng)/organ dry weight (g) ([2]; Fat, 4 hours after oral 30 mg M4N in castor oil): 0 ng/g | M4N (ng)/organ dry weight (g) ([2]; Fat, 8 hours after oral 30 mg M4N in castor oil): 0 ng/g | M4N (ng)/organ dry weight (g) ([2]; Heart, 2 hours after oral 30 mg M4N in castor oil): 0.83 ng/g | M4N (ng)/organ dry weight (g) ([2]; Heart, 4 hours after oral 30 mg M4N in castor oil): 0.11 ng/g | M4N (ng)/organ dry weight (g) ([2]; Heart, 8 hours after oral 30 mg M4N in castor oil): 1.16 ng/g | M4N (ng)/organ dry weight (g) ([2]; Kidneys, 2 hours after oral 30 mg M4N in castor oil): 0.12 ng/g | M4N (ng)/organ dry weight (g) ([2]; Kidneys, 4 hours after oral 30 mg M4N in castor oil): 0.61 ng/g | M4N (ng)/organ dry weight (g) ([2]; Kidneys, 8 hours after oral 30 mg M4N in castor oil): 0 ng/g | M4N (ng)/organ dry weight (g) ([2]; Lg. Intestine, 2 hours after oral 30 mg M4N in castor oil): 0.24 ng/g | M4N (ng)/organ dry weight (g) ([2]; Lg. Intestine, 4 hours after oral 30 mg M4N in castor oil): 8.24 ng/g | M4N (ng)/organ dry weight (g) ([2]; Lg. Intestine, 8 hours after oral 30 mg M4N in castor oil): 2.68 ng/g | M4N (ng)/organ dry weight (g) ([2]; Liver, 2 hours after oral 30 mg M4N in castor oil): 0.05 ng/g | M4N (ng)/organ dry weight (g) ([2]; Liver, 4 hours after oral 30 mg M4N in castor oil): 0.52 ng/g | M4N (ng)/organ dry weight (g) ([2]; Liver, 8 hours after oral 30 mg M4N in castor oil): 0 ng/g | M4N (ng)/organ dry weight (g) ([2]; Lungs, 2 hours after oral 30 mg M4N in castor oil): 0.43 ng/g | M4N (ng)/organ dry weight (g) ([2]; Lungs, 4 hours after oral 30 mg M4N in castor oil): 0 ng/g | M4N (ng)/organ dry weight (g) ([2]; Lungs, 8 hours after oral 30 mg M4N in castor oil): 2.7 ng/g | M4N (ng)/organ dry weight (g) ([2]; Pancreas, 2 hours after oral 30 mg M4N in castor oil): 0.57 ng/g | M4N (ng)/organ dry weight (g) ([2]; Pancreas, 4 hours after oral 30 mg M4N in castor oil): 24.69 ng/g | M4N (ng)/organ dry weight (g) ([2]; Pancreas, 8 hours after oral 30 mg M4N in castor oil): 2.97 ng/g | M4N (ng)/organ dry weight (g) ([2]; Seminal Vesicles, 2 hours after oral 30 mg M4N in castor oil): 0.21 ng/g | M4N (ng)/organ dry weight (g) ([2]; Seminal Vesicles, 4 hours after oral 30 mg M4N in castor oil): 0.37 ng/g | M4N (ng)/organ dry weight (g) ([2]; Seminal Vesicles, 8 hours after oral 30 mg M4N in castor oil): 0 ng/g | M4N (ng)/organ dry weight (g) ([2]; Small Intestine, 2 hours after oral 30 mg M4N in castor oil): 0.09 ng/g | M4N (ng)/organ dry weight (g) ([2]; Small Intestine, 4 hours after oral 30 mg M4N in castor oil): 8.42 ng/g | M4N (ng)/organ dry weight (g) ([2]; Small Intestine, 8 hours after oral 30 mg M4N in castor oil): 5.53 ng/g | M4N (ng)/organ dry weight (g) ([2]; Spleen, 2 hours after oral 30 mg M4N in castor oil): 1.1 ng/g | M4N (ng)/organ dry weight (g) ([2]; Spleen, 4 hours after oral 30 mg M4N in castor oil): 0.16 ng/g | M4N (ng)/organ dry weight (g) ([2]; Spleen, 8 hours after oral 30 mg M4N in castor oil): 0 ng/g | M4N (ng)/organ dry weight (g) ([2]; Stomach, 2 hours after oral 30 mg M4N in castor oil): 0.23 ng/g | M4N (ng)/organ dry weight (g) ([2]; Stomach, 4 hours after oral 30 mg M4N in castor oil): 45.03 ng/g | M4N (ng)/organ dry weight (g) ([2]; Stomach, 8 hours after oral 30 mg M4N in castor oil): 33.9 ng/g | M4N present in tissue ([2]; pancreas, 4 hours post-feeding): Significant quantities | Time of peak M4N levels ([2]; post-feeding, single oral 30 mg): roughly 4 hours | Reduction in mean tumor volume versus control ([3]; HT-29, after 21 days systemic M4N treatment): 70% | DOTV: number of tumors with decrease in volume from the original tumor volume [3, 7]: 3 | IOTV: number of tumors with increase in volume from the original tumor volume [3, 7]: 8 | Tumor Volume Increase (%) - 21 Days Treatment, M4N-Treatment ([3]; HT-29 xenograft, 2 mg M4N i.p. daily for 3 weeks): 787% | Ratio of Mean M4N-Treated Tumor Size to Control Tumor Size ([3]; HT-29 xenograft, 2 mg M4N i.p. daily, 21 days): 29.4% | Damage to healthy tissue surrounding the tumor ([4]; in vivo): No damage | Dose delivered without drug-related toxicity ([4]; in vivo): up to 495 mg weekly | Other adverse events attributed to M4N ([4]; in vivo): No other adverse events | Relation of SAEs to study medication ([4]; in vivo): unlikely or not related to study medication | Serious Adverse Events reported ([4]; in vivo): 6 | Subjects with Serious Adverse Events ([4]; in vivo): 4 subjects | Subjects with severe radiating pain on injection ([4]; in vivo): One | Subjects with sporadic mild elevations in LFTs ([4]; in vivo): 2 subjects | Subjects with drug related tumor necrosis after injection ([4]; of 6 subjects receiving three doses): 5 subjects | Patients with radiologically confirmed tumor volume reduction ([4]; of the six patients completing three doses): three | Efficacy in terms of induction of necrosis ([4]; patients that completed the treatment): over 80% | M4N tissue levels relative to levels seen at 6 hours [5]: 5-10% | M4N per gram of wet tumor ([5]; ip): 294 ng per gram of wet tumor | Time of peak M4N tissue levels ([5]; ip): approximately 6 hours | DOTV: number of tumors with decrease in volume from the original tumor volume [6]: 21 | IOTV: number of tumors with increase in volume from the original tumor volume [6]: 18 | IOTV: share of tumors with increase in volume [6]: (46%)

Reference: patent US7728036B2, “Methods for delivery of catecholic butanes for treatment of tumors” (priority 2003, dated 2010)
